Patent US10568852B2, “Combination compositions and their use in methods for treating obesity and obesity-related disorders” (Helmholtz Zentrum Munchen—Deutsches Forschungszentrum fur …, priority 2015, dated 2020)

Legend:
[1] = system: DIO male mice; experiment: Glucose tolerance (intraperitoneal glucose challenge) in DIO mice; assay type: in vivo; conditions: 7-days treatment, daily subcutaneous injections, vs vehicle
Procedure: We also investigated the effect of DMPP alone on glucose tolerance and area under the curve (AUC). Glucose tolerance was assessed following 7-days treatment of DIO male mice with vehicle (control) or DMPP (1 mg/kg, 5 mg/kg or 10 mg/ml). Compounds were administered by daily subcutaneous injections.
Glucose tolerance was assessed following 7-days treatment of DIO male mice with vehicle (control) or icilin (6 mg/kg). […] Compounds were administered by daily subcutaneous injections.
Glucose tolerance was assessed following 7-days treatment of DIO male mice with vehicle (control), DMPP alone (10 mg/kg), icilin alone (5 mg/kg) or DMPP (10 mg/ml)+icilin (5 mg/kg). Compounds were administered by daily subcutaneous injections.

[2] = system: DIO male mice; experiment: Body weight of diet-induced obese mice under daily subcutaneous treatment; assay type: in vivo; conditions: daily subcutaneous injections, vs vehicle
Procedure: (§1) Six- to eight-week-old male C57Bl/6 mice were given ad libitum access to a high-fat, high-sugar diet comprising 58% kcal fat (D12331; Research Diets, New Brunswick, N.J.). The mice had free access to water and were maintained at 23±1° C., constant humidity and on a 12-h light-dark cycle. Mice were maintained under these conditions for a minimum of 20 weeks before study initiation. At study start, mice were randomized into groups matched for body weight and body composition. Compounds were administered subcutaneously 1 h before the onset of the dark phase. Co-administration of compounds was administered by single formulated injections. Assessment of energy intake, energy expenditure and home-cage activity were performed using an indirect calorimetry system (TSE Phenotmaster, TSE Systems, Bad Homburg, Germany).
To assess the effect of icilin alone on the body weight and food intake, DIO male mice were treated 16 days with vehicle (control) or icilin (0.6 mg/kg or 6 mg/kg). […] Compounds were administered by daily subcutaneous injections.
To assess the effect of the combination therapy on the body weight, DIO male mice were treated 4 days with vehicle (control), DMPP alone (10 mg/kg), icilin alone (5 mg/kg) or DMPP (10 mg/ml)+icilin (5 mg/kg). Compounds were administered by daily subcutaneous injections. […]

[3] = system: DIO male mice; conditions: 14 days, DMPP 1 mg/kg, 5 mg/kg or 10 mg/ml, daily subcutaneous injections, vs vehicle
Procedure: as §1
To assess the effect of DMPP alone on the body weight and food intake, diet-induced obese (DIO) male mice were treated 14 days with vehicle (control) or DMPP (1 mg/kg, 5 mg/kg or 10 mg/ml). Compounds were administered by daily subcutaneous injections.

[4] = system: DIO male mice; experiment: Energy expenditure (indirect calorimetry) in DIO mice; assay type: in vivo; conditions: 5-days treatment, icilin 6 mg/kg, daily subcutaneous injections, vs vehicle
Procedure: To assess the effect of icilin alone on the body weight and food intake, DIO male mice were treated 16 days with vehicle (control) or icilin (0.6 mg/kg or 6 mg/kg). The results of these treatments are shown in FIGS. 3(A) and 3(B) (control: white circle; icilin: 0.6 mg/kg (star) or 6 mg/kg (black circle)). The effect on energy expenditure was investigated by a 5-days treatment of DIO male mice with vehicle (control) or icilin (6 mg/kg). Compounds were administered by daily subcutaneous injections. The results of these treatments are shown in FIG. 3(C) (control: white bar; icilin: black bar).

[5] = system: DIO male mice; experiment: Fasting glucose in DIO mice; assay type: in vivo; conditions: 23-days treatment, icilin 6 mg/kg, daily subcutaneous injections, vs vehicle
Procedure: Glucose tolerance was analyzed in 6 h fasted mice, following an intraperitoneal challenge with 1.5 g glucose per kg body weight. Glucose levels were measured in blood sampled from the tail veins before (0 min) and at 15, 30, 60 and 120 min post injection. To measure glucose-stimulated insulin secretion blood was collected from tail veins into EDTA-coated microvette tubes (Sarstedt) at time points 0, 15 and 60 min post glucose injection. Insulin sensitivity was assessed in 6 h fasted mice following an intraperitoneal injection of 0.7 U of insulin (Actrapid) per kg body weight. Blood glucose levels were measured before (0 min) and at 15, 30, 60 and 120 minutes after the insulin injection. Insulin was measured with commercially available kit (ALPCO Diagnostics, Salem, N.H.) per the manufacturer's instructions.
Glucose tolerance was assessed following 7-days treatment of DIO male mice with vehicle (control) or icilin (6 mg/kg). The results are shown in FIG. 3(D) (control: white; icilin: black). Fasting glucose was assessed following 23-days treatment of DIO male mice with vehicle (control) or icilin (6 mg/kg). Compounds were administered by daily subcutaneous injections. The results are shown in FIG. 3(E) (control: white bar; icilin: black bar).

Structure (SMILES)	effect on glucose tolerance and area under the curve (AUC) ([1]; DMPP 1 mg/kg, 5 mg/kg or 10 mg/ml)	effect on body weight ([2]; 14 days, DMPP 1 mg/kg, 5 mg/kg or 10 mg/ml)	effect on food intake [3]	effect on glucose tolerance ([1]; icilin 6 mg/kg)	effect on body weight ([2]; 16 days, icilin 0.6 mg/kg or 6 mg/kg)	effect on energy expenditure [4]	effect on fasting glucose [5]
C[N+]1(C)CCN(c2ccccc2)CC1 [DMPP, dimethylphenylpiperazinium]	dose-dependent improvement in glucose tolerance	dose-dependent weight lowering effect	reduction in food intake	–	–	–	–
O=C1NC(c2cccc([N+](=O)[O-])c2)=CCN1c1ccccc1O [icilin, 3-(2-hydroxyphenyl)-6-(3-nitrophenyl)-3,4-dihydropyrimidin-2(1H)-one]	–	–	–	does not lead to a short term improvement in glucose tolerance	dose-dependent weight loss	increased energy expenditure	improved fasting glucose levels
